From PubChem BioAssay (NCI)
“And” between values parts separate entries of the source, which are not always exact repeats. Equal values may be shown once.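 Tested at 5 concentrations; 48 h exposure; 96-well plates; endpoints linearly interpolated, else capped at highest concentration. GI50 marks 50% less growth. The concentration for full growth arrest is given as TGI.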

Experiments:
Assay in all cases: DTP human tumour cell line panel, 48 h
CCRF-CEM leukemia = tested on: CCRF-CEM leukemia
HOP-62 NSCLC = tested on: HOP-62 NSCLC
MCF7 breast = tested on: MCF7 breast
NCI-H23 lung = tested on: NCI-H23 lung
OVCAR-5 ovarian = tested on: OVCAR-5 ovarian
TK-10 renal = tested on: TK-10 renal
UACC-257 melanoma = tested on: UACC-257 melanoma
UO-31 renal = tested on: UO-31 renal
HCC-2998 colon = tested on: HCC-2998 colon
MALME-3M melanoma = tested on: MALME-3M melanoma

Structure (SMILES) | TGI (CCRF-CEM leukemia) | TGI (HOP-62 NSCLC) | TGI (MCF7 breast) [µM] | TGI (NCI-H23 lung) | TGI (OVCAR-5 ovarian) | TGI (TK-10 renal) | TGI (UACC-257 melanoma) [µM] | TGI (UO-31 renal) | TGI (HCC-2998 colon) [µM] | TGI (MALME-3M melanoma) [µM] | GI50 (NCI-H23 lung) | GI50 (TK-10 renal) | GI50 (CCRF-CEM leukemia) [nM] | GI50 (HOP-62 NSCLC) [µM] | GI50 (MALME-3M melanoma) [µM] | GI50 (MCF7 breast) [µM] | GI50 (OVCAR-5 ovarian) [µM]
CC(=O)Nc1nc2c(=O)c3ccccc3sc2s1 | > 100 µM | > 100 µM | > 100 | > 100 µM | > 100 µM | > 100 µM | > 100 | > 100 µM |  |  |  |  |  |  |  |  | 
C[C@H]1CCC/C=C/[C@@H]2C[C@H](OC(=O)CN(C)C)C[C@H]2[C@H](O)/C=C/C(=O)O1 | > 100 µM | > 100 µM | 4.31 | 0.909 µM | 5.68 µM | 1.93 µM | 27.8 | 1.48 µM | 0.235 | 0.15 |  |  |  |  |  |  | 
Cc1cn([C@H]2C[C@@H](N3C(=O)c4ccccc4C3=O)[C@@H](CO[Si](C)(C)C(C)(C)C)O2)c(=O)[nH]c1=O | > 100 µM | 61.4 µM | > 100 | > 100 µM | > 100 µM | > 100 µM | > 100 | > 100 µM | > 100 | > 100 |  |  |  |  |  |  | 
Clc1ccc(C(OCn2ccnc2)c2nc3ccccc3[nH]2)c(Cl)c1 (stereo not drawn) | > 100 µM | > 100 µM | > 100 | > 100 µM | > 100 µM | > 100 µM | > 100 | 92.1 µM | > 100 | > 100 |  |  |  |  |  |  | 
COC(=O)C(=O)C(C(=O)C(=O)Nc1cccc(OC)c1)c1nc2ccc(Cl)cc2[nH]c1=O (stereo not drawn) | > 100 µM |  | > 100 | > 100 µM | > 100 µM | > 100 µM | > 100 | > 100 µM | > 100 | > 100 |  |  |  |  |  |  | 
O=C(O)CCC(NC(=O)c1ccc(Nc2nc3ccc(C(F)(F)F)cc3nc2C(=O)O)cc1)C(=O)O (stereo not drawn) | > 100 µM | > 100 µM | > 100 | > 100 µM | > 100 µM | > 100 µM | > 100 | > 100 µM | > 100 |  |  |  |  |  |  |  | 
O=C(OC1OC2COC(=O)c3cc(O)c(O)c(O)c3-c3c(cc(O)c(O)c3O)C(=O)OC3C2OC(=O)[C@@]24CC(=O)[C@@](O)(OC25C(=O)O[C@H]2[C@@H](O)CO[C@@]25O)C2(O)Oc5c(O)c(O)cc(c5C24)C(=O)OC13)c1cc(O)c(O)c(O)c1 (stereo partly drawn) | 87.8 µM | > 100 µM | 29.1 | > 100 µM | > 100 µM |  | > 100 | > 100 µM | > 100 | > 100 |  |  |  |  |  |  | 
C/C=C(/CCC1NCCc2c1[nH]c1ccccc21)[Si](C)(C)C (stereo not drawn) | > 100 µM and 11.5 µM | > 100 µM and 26.7 µM |  | > 100 µM and 25.5 µM | > 100 µM and 14.6 µM | > 100 µM and 24.8 µM |  | > 100 µM and 17.3 µM |  |  | 87.1 µM and 11.1 µM | > 100 µM and 12.2 µM |  |  |  |  | 
CC(C)(C)n1c(=O)n2c(-c3ccccc3)c(-c3ccccc3)n2c1=O |  |  | > 100 | > 100 µM | > 100 µM | > 100 µM | > 100 | > 100 µM | > 100 | > 100 |  |  |  |  |  |  | 
CCOc1ccc(OP2(=O)NC(=O)C=C(C)N2)cc1 (stereo not drawn) | > 100 µM | > 100 µM |  | > 100 µM | > 100 µM | > 100 µM | > 100 | > 100 µM |  | > 100 |  |  |  |  |  |  | 
c1ccc(C(NC2=NCCO2)C2CC2)cc1 (stereo not drawn) |  | > 100 µM | > 100 | > 100 µM | > 100 µM | > 100 µM | > 100 | > 100 µM | > 100 | > 100 |  |  |  |  |  |  | 
N/C(CCSCCSCC/C(N)=N\O)=N\O | > 100 µM | > 100 µM | > 100 | > 100 µM | > 100 µM | > 100 µM |  | > 100 µM | > 100 | > 100 |  |  |  |  |  |  | 
CC(=O)Oc1ccc(-c2nnc(-c3ccc(OC(C)=O)cc3)nn2)cc1 | > 100 µM | > 100 µM | > 100 | > 100 µM | > 100 µM | > 100 µM | > 100 | > 100 µM |  | > 100 |  |  |  |  |  |  | 
COC(=O)N/N=c1\cc(C(=O)Nc2ccc(C)c(C)c2)oc2cc(O)ccc12 | > 100 µM | > 100 µM |  | > 100 µM | > 100 µM | > 100 µM | > 100 | > 100 µM | > 100 | > 100 |  |  |  |  |  |  | 
O=C1/C(=C/c2ccc(Br)s2)NC(=S)N1CN1CCCCC1 |  | > 100 µM | 57.8 | > 100 µM | > 100 µM | > 100 µM | > 100 | 76.3 µM | > 100 | > 100 |  |  |  |  |  |  | 
C=C1CC[C@@H]2[C@](C)(COC(=O)CCC(=O)OC)CCC[C@@]2(C)[C@@H]1CCC1=CC(=O)OC1 | 58.8 µM | > 100 µM | > 100 | > 100 µM | > 100 µM | > 100 µM | > 100 | > 100 µM |  | > 100 |  |  |  |  |  |  | 
COc1cc(CCN)c(OC)c(OC)c1 | > 100 µM | > 100 µM | > 100 | > 100 µM | > 100 µM | > 100 µM | > 100 | > 100 µM |  | > 100 |  |  |  |  |  |  | 
Cc1cccc(C)c1NC(=O)C(=O)CC(=O)c1sc(Nc2c(C)cccc2C)nc1C | > 100 µM | > 100 µM | > 100 | > 100 µM | > 100 µM | > 100 µM | > 100 | > 100 µM | > 100 |  |  |  |  |  |  |  | 
CCCCCCCCCCCCCCCCOP(=O)([O-])OCC[N+](C)(C)C1CC(C)(C)N(O)C(C)(C)C1 |  | > 100 µM | > 100 | > 100 µM | > 100 µM | > 100 µM | > 100 | > 100 µM | > 100 | > 100 |  |  |  |  |  |  | 
C/C=C1/C=CC2c3[nH]c4ccccc4c3CCN2C1 (stereo not drawn) | > 400 µM | > 400 µM |  | > 400 µM |  | > 400 µM | > 400 |  | > 400 | > 400 |  |  |  |  |  |  | 
CCOC(=O)c1c(Cl)c2c(n1Cc1ccccc1)-c1oncc1CCC2 | > 100 µM | > 100 µM | > 100 |  | > 100 µM | > 100 µM |  |  |  | > 100 |  | > 100 µM | 2210 | 4.35 | 3.68 | 3.21 | > 100
COC(=O)c1ccc(CCC2=CC(=O)C=CC2=O)cc1 | 2 µM | 39.3 µM | 30 | 39.4 µM | 33.8 µM | 33 µM | 22.5 | 19.9 µM | 30.8 |  |  |  |  |  |  |  | 
